Patent US6699660B2, “Immediate early genes and methods of use therefor” (The Johns Hopkins University School of Medicine, priority 1998, dated 2004)

How the values were obtained:
L119 mRNA [1] = assay: 3-NP ischemia model, Northern blot of total brain RNA; type: in vivo, rat; details: 3-NP 20 mg/kg i.p., three hours post-injection, total brain RNA without cerebellum; PSL - background; untreated 55.48
Description: (§1) In another study, the expression pattern of L100 and L119 was determined using two models for ischemia. Briefly, neurons degenerate in brain and spinal cord after acute insults (e.g., stroke, cardiac arrest, and trauma) and during progressive, adult-onset diseases (e.g., amyotrophic lateral sclerosis, and Alzheimer's disease). Impaired energy metabolism plays an important role in neuronal cell death after brain ischemia, and apoptosis has been implicated in cell death induced by metabolic impairment. The irreversible inhibitor of succinate dehydrogenase in the mitochondria, 3-nitroproplonic acid (3-NP), inhibits oxidative phosphorylation and causes intracellular hypoxia. Thus, one model used to study ischemia involves intrastriatal injections of 3-NP, which is known to produce selective cell death similar to that observed in transient ischemia and Huntington's disease (McLaughlin et al., J. Neurochem 70:2406-2415 (1998)). The other model is a global ischemic paradigm that involves a 15 minute insult by complete occlusion of the carotis.
(§2) In the 3-NP study, 220-300 g Wistar rats were intraperitoneally injected with 20 mg/kg body weight. Three hours post-injections, the brain was removed and total RNA prepared. In the global ischemia study, 220-300 g Wistar rats were received a 15 minute insult (bilateral occlusion of the Carotis/arterial pressure=35 mm Hg). One hour later, the rats received a reperfusion followed by immediate brain dissection and total RNA preparation. Untreated rats were used as controls for each study. Ten (10) μg of total rat brain RNA (without cerebellum) was loaded per lane and blotted. Probes were prepared from the 3′ untranslated regions of L100 and L119. The Northern blot data was collected using a Phosphoimager (FLA2000 Fuji, Tina software) and expressed as PSL—background.

L100 mRNA [2] = assay: as above; type: in vivo, rat; details: 3-NP 20 mg/kg i.p., three hours post-injection, total brain RNA without cerebellum; PSL - background; untreated 30.95
Description: as §1, §2

GAPDH mRNA = assay: as above; type: in vivo, rat; details: 3-NP 20 mg/kg i.p., three hours post-injection, total brain RNA without cerebellum; PSL - background; untreated 487.02
Description: as §1, §2

c-fos mRNA = assay: as above; type: in vivo, rat; details: 3-NP 20 mg/kg i.p., three hours post-injection, total brain RNA without cerebellum; PSL - background; untreated 18.1
R286 mRNA [3] = assay: PTZ-induced seizures, in situ hybridization; type: in vivo, rat
Description: (§3) For in situ hybridization, Dig-labeled cRNA probes were used as described elsewhere (Kuner et al., Science 283:5398 (1999)). Specifically, R286 mRNA expression was the highest in the cortex and hippocampus while being moderately high in the cerebellar granule cells, brainstem nuclei, several lateral and medial thalamic nuclei, olfactory bulb, and striatum. […] Briefly, a probe from the 3′ untranslated region of R286 was used to hybridize a Northern blot containing 2 μg polyA^+ RNA from hippocampus from brains of untreated rats as well as rats receiving the multiple MECS treatment. After one day of exposure using the phosphoimager FLA2000 (Fuji), an upregulation of R286 mRNA was detected in the hippocampus (3.72 fold induction) collected four hours after the last MECS treatment. An additional Northern blot analysis using 10 μg total RNA from hippocampus from untreated rats and rats receiving the multiple MECS treatment was performed.
(§4) In addition, rats that developed seizures following intraperitoneal injection of kainate or PTZ were analyzed for the expression of R286 mRNA in addition to the mRNA of other LEG clones (Tables III and V).

R286 mRNA [4] = assay: PTZ-induced seizures, mRNA expression by Northern blot; type: in vivo, rat; details: hippocampus, 6 hour, vs PBS
Description: (§5) PTZ-induced seizures is a model used to study epilepsy and ischemia. Briefly, 300-350 g male Sprague-Dawley rats were intrapertoneally injected with either 50 mg/kg body weight of PTZ or PBS. Total RNA samples from the hippocampus, cortex, and cerebellum were prepared from treated rats at 20 minutes, 6 hours, and 24 hours post-injection. This RNA then was used to measure mRNA expression by Northern blot analysis. Control mRNA measurements included c-fos and GAPDH. A Phosphoimager FLA2000 (Fuji) was used to analyze the data, which was expressed as the Integral PSL—background PSL (1D evaluation with Aida version 2.0).
as §4

L119 mRNA [5] = assay: as above; type: in vivo, rat; details: for Fold increase in L119 mRNA expression upon PTZ treatment: 20 min, vs PBS; for L119 mRNA expression normalized to GADPH expression: 20 min after PTZ 50 mg/kg i.p., Integral PSL - background PSL
Description: as §5

L100 mRNA [6] = assay: as above; type: in vivo, rat; details: for Fold increase in L100 mRNA expression upon PTZ treatment: vs PBS; for L100 mRNA expression normalized to GADPH expression: Integral PSL - background PSL
Description: as §5

R113 mRNA [7] = assay: as above; type: in vivo, rat; details: hippocampus, 6 hour, vs PBS
Description: as §5

R286 mRNA [8] = assay: kainate-induced seizures, in situ hybridization; type: in vivo, rat
Description: as §3, §4

L119 mRNA [9] = assay: kainate-induced seizures, mRNA expression by Northern blot and RT-PCR; type: in vivo, rat; details: for L119 mRNA expression normalized to GADPH expression: Integral PSL - background PSL; for Fold increase in L119 mRNA expression upon kainate treatment: vs PBS
Description: (§6) Kainate-induced seizures is a model used to study epilepsy. Briefly, 300-350 g male Sprague-Dawley rats were intrapertoneally injected with either 10 mg/kg body weight of kainate or PBS. RNA samples from the hippocampus, cortex, and cerebellum were prepared from treated rats at 1.5, 6, and 24 hours post-injection. This RNA then was used to measure mRNA expression by Northern blot and RT-PCR analysis. Control mRNA measurements included c-fos, GAPDH, NO-38, and ATF-4 for the Northern blot analysis, and Hsp70, c-jun, Zif268, c-fos, Clathrin, and β-actin for the RT-PCR analysis. A Phosphoimager FLA2000 (Fuji) was used to analyze the data, which was expressed as the Integral PSL—background PSL (1D evaluation with Aida version 2.0).

L100 mRNA [10] = assay: as above; type: in vivo, rat; details: for L100 mRNA expression normalized to GADPH expression: Integral PSL - background PSL; for Fold increase in L100 mRNA expression upon kainate treatment: vs PBS
Description: as §6

R113 mRNA [11] = assay: as above; type: in vivo, rat; details: hippocampus, 1.5 hour, vs PBS
Description: as §6

A013 mRNA = assay: as above; type: in vivo, rat; details: hippocampus, 1.5 hour, vs PBS
Description: as §6

L094 mRNA = assay: as above; type: in vivo, rat; details: hippocampus, 1.5 hour, vs PBS
Description: as §6

L100 mRNA [12] = assay: kainate-induced seizures, in situ hybridization; type: in vivo, rat; details: six hours following kainate injection
Description: For in situ hybridization, Dig-labeled cRNA probes were used as described elsewhere (Kuner et al., Science 283:5398 (1999)). […] Specifically, L100 mRNA expression was induced 17.2 fold by the multiple MECS treatment as determined from Northern blot data using total RNA from rat hippocampus (Table I).
as §6

[13] = tested on: R010 expression in PC12 cells; assay: NGF treatment of PC12 cells, R010 expression; type: cell-based
[14] = cortex, 6 hour after kainate 10 mg/kg i.p.
[15] = cortex, 24 hour after kainate 10 mg/kg i.p.
[16] = hippocampus, 1.5 hour after kainate 10 mg/kg i.p.
[17] = hippocampus, 6 hour after kainate 10 mg/kg i.p.
[18] = hippocampus, 24 hour after kainate 10 mg/kg i.p.

O=C(O)CC[N+](=O)[O-] [3-NP, 3-nitroproplonic acid]
L119 mRNA expression after 3-NP treatment (L119 mRNA [1]): 41.94
L100 mRNA expression after 3-NP treatment (L100 mRNA [2]): 43.82
GAPDH mRNA expression after 3-NP treatment (GAPDH mRNA): 587.51
c-fos mRNA expression after 3-NP treatment (c-fos mRNA): 26.64

C1CCc2nnnn2CC1 [PTZ, pentylenetetrazole]
R286 mRNA expression by in situ hybridization (R286 mRNA [3]; 20 minutes post-PTZ injection): no upregulation
R286 mRNA expression by in situ hybridization (R286 mRNA [3]; 6 hours post-PZT injection, hippocampal pyramidal cell layer, cortex, thalamus, cerebellar Purkinje cell layer): mildly upregulated
Fold increase in R286 mRNA expression upon PTZ treatment (R286 mRNA [4]): 2.6 fold
Fold increase in L119 mRNA expression upon PTZ treatment (L119 mRNA [5]; cortex): 2.78 fold
L119 mRNA expression normalized to GADPH expression (L119 mRNA [5]; cortex): 1605
Fold increase in L119 mRNA expression upon PTZ treatment (L119 mRNA [5]; hippocampus): 2.82 fold
L119 mRNA expression normalized to GADPH expression (L119 mRNA [5]; hippocampus): 965
expression of L100 mRNA when acute seizures were induced by PTZ treatment (L100 mRNA [6]; PTZ 50 mg/kg i.p.): strongly upregulated
Fold increase in L100 mRNA expression upon PTZ treatment (L100 mRNA [6]; cortex, 20 min): 2.84 fold
L100 mRNA expression normalized to GADPH expression (L100 mRNA [6]; cortex, 20 min after PTZ 50 mg/kg i.p.): 2719
L100 mRNA expression normalized to GADPH expression (L100 mRNA [6]; cortex, 6 hour after PTZ 50 mg/kg i.p.): 3740
Fold increase in L100 mRNA expression upon PTZ treatment (L100 mRNA [6]; cortex, 6 hour): 3.22 fold
L100 mRNA expression normalized to GADPH expression (L100 mRNA [6]; cortex, 24 hour after PTZ 50 mg/kg i.p.): 1825
Fold increase in L100 mRNA expression upon PTZ treatment (L100 mRNA [6]; cortex, 24 hour): 1.55 fold
Fold increase in L100 mRNA expression upon PTZ treatment (L100 mRNA [6]; hippocampus, 20 min): 3.1 fold
L100 mRNA expression normalized to GADPH expression (L100 mRNA [6]; hippocampus, 20 min after PTZ 50 mg/kg i.p.): 1637
L100 mRNA expression normalized to GADPH expression (L100 mRNA [6]; hippocampus, 6 hour after PTZ 50 mg/kg i.p.): 1992
Fold increase in L100 mRNA expression upon PTZ treatment (L100 mRNA [6]; hippocampus, 6 hour): 2.33 fold
L100 mRNA expression normalized to GADPH expression (L100 mRNA [6]; hippocampus, 24 hour after PTZ 50 mg/kg i.p.): 1903
Fold increase in L100 mRNA expression upon PTZ treatment (L100 mRNA [6]; hippocampus, 24 hour): 1.97 fold
Fold increase in R113 mRNA expression upon PTZ treatment (R113 mRNA [7]): 2.0 fold

C=C(C)[C@H]1CN[C@H](C(=O)O)[C@H]1CC(=O)O [kainate]
R286 mRNA expression by in situ hybridization (R286 mRNA [8]; 1.5 hours post-kainate injection): no upregulation
R286 mRNA expression by in situ hybridization (R286 mRNA [8]; 6 hours post-kainate injection, hippocampal pyramidal cell layer, cortex, thalamus, cerebellar Purkinje cell layer): mildly upregulated
L119 mRNA expression normalized to GADPH expression (L119 mRNA [9]; [14]): 1262
L119 mRNA expression normalized to GADPH expression (L119 mRNA [9]; [15]): 505
L119 mRNA expression normalized to GADPH expression (L119 mRNA [9]; [16]): 69982
Fold increase in L119 mRNA expression upon kainate treatment (L119 mRNA [9]; hippocampus, 1.5 hour): 24.85 fold
L119 mRNA expression normalized to GADPH expression (L119 mRNA [9]; [17]): 11519
Fold increase in L119 mRNA expression upon kainate treatment (L119 mRNA [9]; hippocampus, 6 hour): 2.51 fold
L119 mRNA expression normalized to GADPH expression (L119 mRNA [9]; [18]): 12944
Fold increase in L119 mRNA expression upon kainate treatment (L119 mRNA [9]; hippocampus, 24 hour): 4.64 fold
L100 mRNA expression normalized to GADPH expression (L100 mRNA [10]; [14]): 290
Fold increase in L100 mRNA expression upon kainate treatment (L100 mRNA [10]; cortex, 6 hour): 3.58 fold
L100 mRNA expression normalized to GADPH expression (L100 mRNA [10]; [15]): 131
Fold increase in L100 mRNA expression upon kainate treatment (L100 mRNA [10]; cortex, 24 hour): 1.52 fold
L100 mRNA expression normalized to GADPH expression (L100 mRNA [10]; [16]): 85251
Fold increase in L100 mRNA expression upon kainate treatment (L100 mRNA [10]; hippocampus, 1.5 hour): 18.44 fold
L100 mRNA expression normalized to GADPH expression (L100 mRNA [10]; [17]): 15444
Fold increase in L100 mRNA expression upon kainate treatment (L100 mRNA [10]; hippocampus, 6 hour): 1.97 fold
L100 mRNA expression normalized to GADPH expression (L100 mRNA [10]; [18]): 16551
Fold increase in L100 mRNA expression upon kainate treatment (L100 mRNA [10]; hippocampus, 24 hour): 4.20 fold
expression of L100 mRNA when acute seizures were induced by kainate treatment (L100 mRNA [10]; kainate 10 mg/kg i.p.): strongly upregulated
Fold increase in R113 mRNA expression upon kainate treatment (R113 mRNA [11]): 2.0 fold
Fold increase in A013 mRNA expression upon kainate treatment (A013 mRNA): 9.8 fold
Fold increase in L094 mRNA expression upon kainate treatment (L094 mRNA): 3.6 fold
L100 mRNA regulation by in situ hybridization (L100 mRNA [12]; dentate gyrus, CA3 and CA4 of hippocampus, entorrhinal cortex, cingulum, fimbria): strong upregulation
L100 mRNA regulation by in situ hybridization (L100 mRNA [12]; thalamic nuclei, temporal, parietal, frontal, medial orbital and cingulate cortex, cerebellar granule cells): Moderate upregulation

NGF: NGF used to treat PC12 cells
R010 expression in vitro [13]: rapidly induced
